molecular target: T1, human adenosine A2A receptor (Homo sapiens, UniProt P29274); test: [3H]-SCH-58261 binding assay, human adenosine A2A receptor expressed in CHO cell membranes (SPA); details: [3H]-SCH-58261 1 nM, Ki by Cheng-Prussoff equation
T1 construct: expressed in transfected cells; host or cells: CHO cells, semliki forest virus expression system; membrane preparation
Protocol: Human Adenosine A2A Receptor
The human adenosine A2A receptor was recombinantly expressed in chinese hamster ovary (CHO) cells using the semliki forest virus expression system. Cells were harvested, washed twice by centrifugation, homogenised and again washed by centrifugation. The final washed membrane pellet was suspended in a Tris (50 mM) buffer containing 120 mM NaCl, 5 mM KCl, 2 mM CaCl2 and 10 mM MgCl2 (pH 7.4) (buffer A). The [^3H]-SCH-58261 (Dionisotti et al., 1997, Br J Pharmacol 121, 353; 1 nM) binding assay was carried out in 96-well plates in the presence of 2.5 μg of membrane protein, 0.5 mg of Ysi-poly-1-lysine SPA beads and 0.1 U adenosine deaminase in a final volume of 200 μl of buffer A. Non-specific binding was defined using xanthine amine congener (XAC; 2 μM). Compounds were tested at 10 concentrations from 10 μM-0.3 nM. All assays were conducted in duplicate and repeated at least two times. Assay plates were incubated for 1 hour at room temperature before centrifugation and then bound ligand determined using a Packard Topcount scintillation counter. IC50 values were calculated using a non-linear curve fitting program and Ki values calculated using the Cheng-Prussoff equation.

T1 sequence (P29274 whole entry): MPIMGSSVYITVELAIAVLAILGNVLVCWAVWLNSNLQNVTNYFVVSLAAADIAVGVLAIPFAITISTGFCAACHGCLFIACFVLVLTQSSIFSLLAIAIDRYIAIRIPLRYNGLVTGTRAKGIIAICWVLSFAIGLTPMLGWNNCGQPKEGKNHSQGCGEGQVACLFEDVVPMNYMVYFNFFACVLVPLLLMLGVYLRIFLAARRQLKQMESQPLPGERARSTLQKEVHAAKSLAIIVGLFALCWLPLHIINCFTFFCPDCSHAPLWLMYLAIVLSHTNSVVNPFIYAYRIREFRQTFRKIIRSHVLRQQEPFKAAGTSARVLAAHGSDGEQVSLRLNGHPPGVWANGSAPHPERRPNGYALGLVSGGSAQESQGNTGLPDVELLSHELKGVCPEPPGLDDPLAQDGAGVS

| hA2 (pKi) | Structure (SMILES) |
| --- | --- |
| 8.80 | COc1ccc(C2CCCCC2)c2sc(NC(=O)c3ccnc(CN4CCCC4)c3)nc12 [Example 25, N-(7-Cyclohexyl-4-methoxy-benzothiazol-2-yl)-2-pyrrolidin-1-yl-methyl-isonicotinamide] |

same assay, conditions: [3H]-SCH-58261 1 nM, Ki by Cheng-Prussoff equation, read-out: hA2 (pKi) (converted)

| Ki | Structure (SMILES) |
| --- | --- |
| 2.04 nM | COc1ccc(C2CCCCO2)c2sc(NC(=O)c3ccnc(N4CCOCC4)c3)nc12 (stereo not shown) [Example 42, N-[4-Methoxy-7-(tetrahydro-pyran-2-yl)-benzothiazol-2-yl]-2-morpholin-4-yl-isonicotinamide] |
| 1.23 nM | COc1ccc(C2CCOCC2)c2sc(NC(=O)c3ccnc(CN4CCCC4)c3)nc12 [Example 43, N-[4-Methoxy-7-(tetrahydro-pyran-4-yl)-benzothiazol-2-yl]-2-pyrrolidin-1-ylmethyl-isonicotinamide] |
| 3.98 nM | COc1cc(C(=O)Nc2nc3c(OC)ccc(C4CCN(C(C)=O)CC4)c3s2)ccn1 [Example 21, N-[7-(1-Acetyl-piperidin-4-yl)-4-methoxy-benzothiazol-2-yl]-2-methoxy-isonicotinamide] |
| 2.82 nM | COc1ccc(C2CCOCC2)c2sc(NC(=O)c3ccnc(C)c3)nc12 [Example 5, N-[4-Methoxy-7-(tetrahydro-pyran-4-yl)-benzothiazol-2-yl]-2-methyl-isonicotinamide] |
| 1.74 nM | COc1ccc(C2CCOCC2)c2sc(NC(=O)c3ccnc(Br)c3)nc12 [Example 4, 2-Bromo-N-[4-methoxy-7-(tetrahydro-pyran-4-yl)-benzothiazol-2-yl]-isonicotinamide] |
| 6.31 nM | COc1ccc(C2CCN(C(C)=O)CC2)c2sc(NC(=O)c3ccnc(C)c3)nc12 [Example 17, N-[7-(1-Acetyl-piperidin-4-yl)-4-methoxy-benzothiazol-2-yl]-2-methyl-isonicotinamide] |
| 0.759 nM | COc1ccc(C2CCOCC2)c2sc(NC(=O)c3ccnc(N4CCOCC4)c3)nc12 [Example 6, N-[4-Methoxy-7-(tetrahydro-pyran-4-yl)-benzothiazol-2-yl]-2-morpholin-4-yl-isonicotinamide] |
| 2.51 nM | COc1ccc(C2CCN(C(C)=O)CC2)c2sc(NC(=O)c3ccnc(N4CCOCC4)c3)nc12 [Example 20, N-[7-(1-Acetyl-piperidin-4-yl)-4-methoxy-benzothiazol-2-yl]-2-morpholin-4-yl-isonicotinamide] |
| 0.2 nM | COc1ccc(C2CCCCC2)c2sc(NC(=O)c3ccc(F)cc3)nc12 [Example 23, N-(7-Cyclohexyl-4-methoxy-benzothiazol-2-yl)-4-fluoro-benzamide] |
| 3.8 nM | COc1ccc(C2CCCCO2)c2sc(NC(=O)c3ccnc(Br)c3)nc12 (stereo not shown) [Example 39, 2-Bromo-N-[4-methoxy-7-(tetrahydro-pyran-2-yl)-benzothiazol-2-yl]-isonicotinamide] |
| 1.66 nM | CCc1cc(C(=O)Nc2nc3c(OC)ccc(C4CCOCC4)c3s2)ccn1 [Example 33, 2-Ethyl-N-[4-methoxy-7-(tetrahydro-pyran-4-yl)-benzothiazol-2-yl]-isonicotinamide] |
| 1.82 nM | CCCc1cc(C(=O)Nc2nc3c(OC)ccc(C4CCOCC4)c3s2)ccn1 [Example 34, N-[4-Methoxy-7-(tetrahydro-pyran-4-yl)-benzothiazol-2-yl]-2-propyl-isonicotinamide] |

The next lines start with the molecule.

| Structure (SMILES) | Ki |
| --- | --- |
| COCCN(C)Cc1ccc(C(=O)Nc2nc3c(OC)ccc(C4CCN(C(C)=O)CC4)c3s2)cc1 [Example 18, N-[7-(1-Acetyl-piperidin-4-yl)-4-methoxy-benzothiazol-2-yl]-4-{[(2-methoxy-ethyl)-methylamino]-methyl}-benzamide] | 7.94 nM |
| COc1ccc(C2CCOCC2)c2sc(NC(=O)N3CCOCC3)nc12 [Example 44, Morpholine-4-carboxylic acid [4-methoxy-7-(tetrahydro-pyran-4-yl)-benzothiazol-2-yl]-amide] | 1.51 nM |
| COc1ccc(C2CCOCC2)c2sc(NC(=O)c3ccc(F)cc3)nc12 [Example 3, 4-Fluoro-N-[4-methoxy-7-(tetrahydro-pyran-4-yl)-benzothiazol-2-yl]-benzamide] | 1.41 nM |
| COCCN(C)c1cc(C(=O)Nc2nc3c(OC)ccc(C4CCOCC4)c3s2)ccn1 [Example 47, 2-[(2-Methoxy-ethyl)-methyl-amino]-N-[4-methoxy-7-(tetrahydro-pyran-4-yl)-benzothiazol-2-yl]-isonicotinamide] | 1.51 nM |
| COc1ccc(C2CCOCC2)c2sc(NC(=O)N3CCC(O)CC3)nc12 [Example 45, 4-Hydroxy-piperidine-1-carboxylic acid [4-methoxy-7-(tetrahydro-pyran-4-yl)-benzothiazol-2-yl]-amide] | 1.62 nM |
| COc1ccc(C2CCOCC2)c2sc(NC(=O)c3ccc(CCl)cc3)nc12 [Example 7, 4-Chloromethyl-N-[4-methoxy-7-(tetrahydro-pyran-4-yl)-benzothiazol-2-yl]-benzamide] | 1.1 nM |
| COCCN(C)Cc1ccc(C(=O)Nc2nc3c(OC)ccc(C4CCOCC4)c3s2)cc1 [Example 8, 4-{[(2-Methoxy-ethyl)-methyl-amino]-methyl}-N-[4-methoxy-7-(tetrahydro-pyran-4-yl)-benzothiazol-2-yl]-benzamide] | 2.4 nM |
| COc1ccc(C2=CCN(C(C)=O)CC2)c2sc(NC(=O)c3ccc(F)cc3)nc12 [Example 11, N-[7-(1-Acetyl-1,2,3,6-tetrahydro-pyridin-4-yl)-4-methoxy-benzothiazol-2-yl]-4-fluoro-benzamide] | 5.01 nM |
| CCOc1cc(C(=O)Nc2nc3c(OC)ccc(C4CCOCC4)c3s2)ccn1 [Example 32, 2-Ethoxy-N-[4-methoxy-7-(tetrahydro-pyran-4-yl)-benzothiazol-2-yl]-isonicotinamide] | 2.75 nM |
| COc1ccc(C2CCOCC2)c2sc(NC(=O)c3ccc(C)nc3)nc12 [Example 28, N-[4-Methoxy-7-(tetrahydro-pyran-4-yl)-benzothiazol-2-yl]-6-methyl-nicotinamide] | 1.07 nM |
| COc1ccc(C2CCCCO2)c2sc(NC(=O)c3ccnc(C)c3)nc12 (stereo not shown) [Example 41, N-[4-Methoxy-7-(tetrahydro-pyran-2-yl)-benzothiazol-2-yl]-2-methyl-isonicotinamide] | 3.39 nM |
| COC(=O)Nc1nc2c(OC)ccc(C3=CCOCC3)c2s1 [Example 1, [7-(3,6-Dihydro-2H-pyran-4-yl)-4-methoxy-benzothiazol-2-yl]-carbamic acid methyl ester] | 4.9 nM |
| COC(=O)Nc1nc2c(OC)ccc(C3=CCCCC3)c2s1 [Example 22, (7-Cyclohex-1-enyl-4-methoxy-benzothiazol-2-yl)-carbamic acid methyl ester] | 10 nM |
| COc1cc(C(=O)Nc2nc3c(OC)ccc(C4CCOCC4)c3s2)ccn1 [Example 31, 2-Methoxy-N-[4-methoxy-7-(tetrahydro-pyran-4-yl)-benzothiazol-2-yl]-isonicotinamide] | 1.45 nM |
| COc1ccc(C2CCN(C(C)=O)CC2)c2sc(NC(=O)c3ccc(F)cc3)nc12 [Example 12, N-[7-(1-Acetyl-piperidin-4-yl)-4-methoxy-benzothiazol-2-yl]-4-fluoro-benzamide] | 3.16 nM |
| COC(=O)Nc1nc2c(OC)ccc(C3CCOCC3)c2s1 [Example 2, [4-Methoxy-7-(tetrahydro-pyran-4-yl)-benzothiazol-2-yl]-carbamic acid methyl ester] | 11.5 nM |
| COCCNc1cc(C(=O)Nc2nc3c(OC)ccc(C4CCOCC4)c3s2)ccn1 [Example 46, 2-(2-Methoxy-ethylamino)-N-[4-methoxy-7-(tetrahydro-pyran-4-yl)-benzothiazol-2-yl]-isonicotinamide] | 0.871 nM |
| COCCN(C)Cc1ccc(C(=O)Nc2nc3c(OC)ccc(C4CCCCC4)c3s2)cc1 [Example 24, N-(7-Cyclohexyl-4-methoxy-benzothiazol-2-yl)-4-{[(2-methoxy-ethyl)-methyl-amino]-methyl}-benzamide] | 1.58 nM |
| COc1ccc(C2CCOCC2)c2sc(NC(=O)c3ccnc(C(C)C)c3)nc12 [Example 36, 2-Isopropyl-N-[4-methoxy-7-(tetrahydro-pyran-4-yl)-benzothiazol-2-yl]-isonicotinamide] | 1.17 nM |
| COc1ccc(C2CCCCO2)c2sc(NC(=O)c3ccc(F)cc3)nc12 (stereo not shown) [Example 40, 4-Fluoro-N-[4-methoxy-7-(tetrahydro-pyran-2-yl)-benzothiazol-2-yl]-benzamide] | 3.39 nM |
| COc1ccc(C2CCN(C(C)=O)CC2)c2sc(NC(=O)c3ccc(C)cc3)nc12 [Example 19, N-[7-(1-Acetyl-piperidin-4-yl)-4-methoxy-benzothiazol-2-yl]-4-methyl-benzamide] | 3.98 nM |

system: not given; test: not given; details: not given

| melting point | Structure (SMILES) |
| --- | --- |
| 200 to 202 °C | COc1ccc(C2CCOCC2)c2sc(NC(=O)c3ccnc(CN4CCCC4)c3)nc12 [Example 43, N-[4-Methoxy-7-(tetrahydro-pyran-4-yl)-benzothiazol-2-yl]-2-pyrrolidin-1-ylmethyl-isonicotinamide] |
| 192 to 195 °C | COc1ccc(C2CCCCC2)c2sc(NC(=O)c3ccc(F)cc3)nc12 [Example 23, N-(7-Cyclohexyl-4-methoxy-benzothiazol-2-yl)-4-fluoro-benzamide] |

More lines, now with the values behind:

| Structure (SMILES) | melting point |
| --- | --- |
| COc1ccc(C2=CCNCC2)c2sc(NC(=O)c3ccc(F)cc3)nc12.Cl | 268 to 275 °C |
| COc1ccc(C2CCOCC2)c2sc(NC(=O)N3CCC(O)CC3)nc12 [Example 45, 4-Hydroxy-piperidine-1-carboxylic acid [4-methoxy-7-(tetrahydro-pyran-4-yl)-benzothiazol-2-yl]-amide] | 106 to 109 °C |
| COC(=O)Nc1nc2c(OC)ccc(C3=CCCCC3)c2s1 [Example 22, (7-Cyclohex-1-enyl-4-methoxy-benzothiazol-2-yl)-carbamic acid methyl ester] | 164 to 173 °C |
| COc1ccc(C2CCNCC2)c2sc(NC(=O)N3CCOCC3)nc12.Cl | 314 to 315 °C |
